Test results: ChEMBL document CHEMBL1777672, “Synthesis and antifungal activities of natural and synthetic biflavonoids” (2011)
Converted amounts (≈) assume the structure as drawn. The source made the active and inactive calls. The rule behind the calls is not given here.

What was measured:
[1] = test system: Candida albicans; assay: Antifungal activity against Candida albicans ATCC 90028 after 48 hrs by broth microdilution technique; type: functional; settings: ATCC 90028, 48 h
[2] = test system: Aspergillus oryzae; assay: Antifungal activity against Aspergillus oryzae ATCC 10124 after 48 hrs by agar diffusion bioautography method; type: functional, organism-based
[3] = test system: Cryptococcus neoformans; assay: Antifungal activity against Cryptococcus neoformans ATCC 14116 after 72 hrs by agar diffusion bioautography method; type: functional, organism-based
[4] = test system: Candida albicans; assay: Antifungal activity against Candida albicans ATCC 90028 after 48 hrs by agar diffusion bioautography method; type: functional, organism-based
[5] = test system: Candida parapsilosis; assay: Antifungal activity against Candida parapsilosis ATCC 22019 after 48 hrs by agar diffusion bioautography method; type: functional, organism-based
[6] = test system: Aspergillus niger; assay: Antifungal activity against Aspergillus niger ATCC 16404 after 48 hrs by agar diffusion bioautography method; type: functional, organism-based
[7] = Antifungal activity against Rhizopus stolonifer (+) ATCC 6227b after 48 hrs by agar diffusion bioautography method; type: functional
[8] = test system: Fusarium solani; assay: Antifungal activity against Fusarium solani ATCC 36031 after 48 hrs by agar diffusion bioautography method; type: functional, organism-based
[9] = test system: Aspergillus niger; assay: Antifungal activity against Aspergillus niger ATCC 16404 after 48 hrs by broth microdilution technique; type: functional; settings: ATCC 16404, 48 h
[10] = test system: Cryptococcus neoformans; assay: Antifungal activity against Cryptococcus neoformans ATCC 14116 after 72 hrs by broth microdilution technique; type: functional; settings: ATCC 14116, 72 h
[11] = Antifungal activity against Rhizopus stolonifer (+) ATCC 6227b after 48 hrs by broth microdilution technique; type: functional
[12] = test system: Candida parapsilosis; assay: Antifungal activity against Candida parapsilosis ATCC 22019 after 48 hrs by broth microdilution technique; type: functional; settings: Lodderomyces parapsilosis, ATCC 22019, 48 h

MIC [1] | MIC [9] | MIC [10] | MIC [11] | MIC [12] | Structure (SMILES) | Activity [2] | Activity [3] | Activity [4] | Activity [5] | Activity [6] | Activity [7] | Activity [8]
> 800 µM | – | – | – | – | O=C1CC(c2ccc(OCc3ccccc3)cc2)Oc2cc(OCc3ccccc3)cc(O)c21 (centres undefined) | – | – | – | – | – | – | –
– | – | – | – | – | O=C(/C=C/c1ccc(OCc2ccccc2)c(-c2cc(/C=C/C(=O)c3c(O)cc(OCc4ccccc4)cc3OCc3ccccc3)ccc2OCc2ccccc2)c1)c1c(O)cc(OCc2ccccc2)cc1OCc1ccccc1 | inactive | inactive | inactive | inactive | inactive | inactive | inactive
– | 13 µM (≈ 8.15 µg/mL) | – | – | – | COc1cc(O)c(C(=O)/C=C/c2ccc(OC)c(-c3cc(/C=C/C(=O)c4c(O)cc(OC)cc4OC)ccc3OC)c2)c(OC)c1 | inactive | inactive | inactive | inactive | Active | inactive | inactive
800 µM (≈ 434 µg/mL) | – | 13 µM (≈ 7.05 µg/mL) | 200 µM (≈ 108 µg/mL) | – | O=C(/C=C/c1ccc(O)c(-c2cc(/C=C/C(=O)c3c(O)cc(O)cc3O)ccc2O)c1)c1c(O)cc(O)cc1O | inactive | Active | Active | inactive | inactive | Active | inactive
– | – | – | – | – | O=C1C[C@@H](c2ccc(O)c(-c3cc([C@@H]4CC(=O)c5c(O)cc(O)cc5O4)ccc3O)c2)Oc2cc(O)cc(O)c21 | inactive | inactive | inactive | inactive | inactive | inactive | inactive
– | 6 µM (≈ 1.62 µg/mL) | – | – | – | O=c1cc(-c2ccc(O)cc2)oc2cc(O)cc(O)c12 [APIGENIN] | – | – | – | – | – | – | –
– | – | – | – | – | COc1ccc(-c2cc(=O)c3cc(-c4ccc5oc(-c6ccc(OC)cc6)cc(=O)c5c4)ccc3o2)cc1 | inactive | inactive | inactive | inactive | inactive | inactive | inactive
> 800 µM | – | – | – | – | O=C1CC(c2ccc(OCc3ccccc3)c(-c3cc(C4CC(=O)c5c(O)cc(OCc6ccccc6)cc5O4)ccc3OCc3ccccc3)c2)Oc2cc(OCc3ccccc3)cc(O)c21 (centres undefined) | inactive | inactive | Active | inactive | inactive | inactive | inactive
– | – | – | – | – | O=c1c(O)c(-c2ccc(O)c(-c3cc(-c4oc5cc(O)cc(O)c5c(=O)c4O)ccc3O)c2)oc2cc(O)cc(O)c12 | inactive | inactive | inactive | inactive | inactive | inactive | inactive
– | > 800 µM | – | – | – | COc1ccc(-c2cc(=O)c3c(OC)cc(OC)cc3o2)cc1 [TRIMETHYLAPIGENIN] | – | – | – | – | – | – | –
– | – | – | – | – | O=C1CC(c2ccccc2-c2ccccc2C2CC(=O)c3ccc(O)cc3O2)Oc2cc(O)ccc21 (centres undefined) | inactive | inactive | inactive | inactive | inactive | inactive | inactive
– | 800 µM (≈ 178 µg/mL) | 100 µM (≈ 22.2 µg/mL) | 100 µM (≈ 22.2 µg/mL) | 200 µM (≈ 44.4 µg/mL) | O=c1cc(-c2ccccc2)oc2ccccc12 [FLAVONE] | – | – | – | – | – | – | –
– | 100 µM (≈ 33 µg/mL) | > 800 µM | – | – | O=C(/C=C/c1ccccc1)c1ccc(OCc2ccccc2)cc1O | – | – | – | – | – | – | –
– | – | – | – | 400 µM (≈ 190 µg/mL) | O=c1cc(-c2ccc(O)cc2)oc2ccc(-c3ccc4oc(-c5ccc(O)cc5)cc(=O)c4c3)cc12 | inactive | inactive | inactive | Active | inactive | inactive | inactive
– | – | – | – | – | O=C1CC(c2ccccc2-c2ccccc2C2CC(=O)c3ccc(OCc4ccccc4)cc3O2)Oc2cc(OCc3ccccc3)ccc21 (centres undefined) | inactive | inactive | inactive | inactive | inactive | inactive | inactive
– | 200 µM (≈ 102 µg/mL) | – | – | – | O=C1CC(c2ccc(O)c(-c3cc(C4CC(=O)c5ccc(O)cc5O4)ccc3O)c2)Oc2cc(O)ccc21 (centres undefined) | inactive | inactive | inactive | inactive | Active | inactive | inactive
– | 100 µM (≈ 53.8 µg/mL) | – | – | – | O=c1cc(-c2ccc(O)c(-c3cc(-c4cc(=O)c5c(O)cc(O)cc5o4)ccc3O)c2)oc2cc(O)cc(O)c12 | inactive | inactive | inactive | inactive | Active | inactive | inactive
– | > 800 µM | – | – | – | O=C1CC(c2ccc(O)cc2)Oc2cc(O)ccc21 (centres undefined) | – | – | – | – | – | – | –
– | – | – | – | – | C[C@@H]1[C@H](O)[C@@H](C)/C=C/C=C/C=C/C=C/C=C/C=C/C=C/[C@H](O[C@@H]2O[C@H](C)[C@@H](O)[C@H](N)[C@@H]2O)C[C@@H]2O[C@](O)(C[C@@H](O)C[C@@H](O)[C@H](O)CC[C@@H](O)C[C@@H](O)CC(=O)O[C@H]1C)C[C@H](O)[C@H]2C(=O)O | Active | Active | Active | Active | Active | Active | Active
– | – | – | – | 200 µM (≈ 47.6 µg/mL) | O=c1cc(-c2ccc(O)cc2)oc2ccccc12 | – | – | – | – | – | – | –
– | > 800 µM | – | – | – | COc1ccc(/C=C/C(=O)c2c(O)cc(OC)cc2OC)cc1 [FLAVOKAWAIN A] | – | – | – | – | – | – | –
> 800 µM | – | 400 µM (≈ 109 µg/mL) | 800 µM (≈ 218 µg/mL) | – | O=C(/C=C/c1ccc(O)cc1)c1c(O)cc(O)cc1O [4,2',4',6'-TETRAHYDROXYCHALCONE] | – | – | – | – | – | – | –
– | – | > 800 µM | > 800 µM | 400 µM (≈ 177 µg/mL) | O=c1c(-c2c(-c3ccccc3)oc3ccccc3c2=O)c(-c2ccccc2)oc2ccccc12 | inactive | Active | inactive | Active | inactive | Active | inactive
– | – | – | – | – | O=C(/C=C/c1ccc(OCc2ccccc2)c(-c2cc(/C=C/C(=O)c3ccc(OCc4ccccc4)cc3O)ccc2OCc2ccccc2)c1)c1ccc(OCc2ccccc2)cc1O | inactive | Active | inactive | inactive | inactive | inactive | inactive
– | > 800 µM | > 800 µM | – | – | O=C(/C=C/c1ccccc1-c1ccccc1/C=C/C(=O)c1ccc(OCc2ccccc2)cc1O)c1ccc(OCc2ccccc2)cc1O | inactive | Active | inactive | inactive | Active | inactive | inactive
– | > 800 µM | – | 800 µM (≈ 354 µg/mL) | – | O=c1cc(-c2ccccc2-c2ccccc2-c2cc(=O)c3ccccc3o2)oc2ccccc12 | inactive | inactive | inactive | inactive | Active | Active | inactive
– | – | – | – | – | O=C1CC(c2ccc(OCc3ccccc3)c(-c3cc(C4CC(=O)c5ccc(OCc6ccccc6)cc5O4)ccc3OCc3ccccc3)c2)Oc2cc(OCc3ccccc3)ccc21 (centres undefined) | inactive | inactive | inactive | inactive | inactive | inactive | inactive
– | 400 µM (≈ 249 µg/mL) | – | – | – | COc1cc(OC)c2c(=O)cc(-c3ccc(OC)c(-c4cc(-c5cc(=O)c6c(OC)cc(OC)cc6o5)ccc4OC)c3)oc2c1 | inactive | inactive | inactive | inactive | Active | inactive | inactive
